Measurements as given in patent publication US8969554B2, “6-acyl-1,2,4-triazine-3,5-dione derivative and herbicides” (Kumiai Chemical Industry Co., Ltd., priority 2010, dated 2015).

Columns and labels:
Format in all cases: in vivo
A. retroflexus [1] = assay: Herbicidal activity by field soil treatment (Test example 2); design: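 index 0 to 10 in 10% steps of herbicidal effect with 10 meaning complete death and 0 below 10%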; conditions: 1000 g effective component per hectare, day 21 after the treatment
In short: (§1)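 Seeds were sown in field soil in 80 cm^2 pots and covered with soil. A water-diluted wettable powder was then sprayed onto the soil surface at 1000 liters per hectare, delivering 1000 g active ingredient per hectare. Plants grew in a greenhouse, and herbicidal effect was scored against set criteria 21 days after treatment.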

Indian millet [2] = assay: as above; design: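 index 0 to 10 in 10% steps of herbicidal effect with 10 meaning complete death and 0 below 10%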; conditions: 1000 g effective component per hectare, day 21 after the treatment
In short: as §1

Echinochloa crus-galli [3] = assay: as above; design: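 index 0 to 10 in 10% steps of herbicidal effect with 10 meaning complete death and 0 below 10%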; conditions: 1000 g effective component per hectare, day 21 after the treatment
In short: as §1

foxtail = assay: as above; conditions: 1000 g effective component per hectare, day 21 after the treatment;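 further: index 0 to 10 in 10% steps of herbicidal effect with 10 meaning complete death and 0 below 10%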
In short: as §1

A. retroflexus [4] = assay: Herbicidal activity by field foliage treatment (Test example 3); design: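 index 0 to 10 in 10% steps of herbicidal effect with 10 meaning complete death and 0 below 10%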; conditions: 1000 g effective component per hectare, day 14 after the treatment
In short: (§2)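 Plants were grown from seed in field soil in a greenhouse for 2 weeks, then sprayed over the whole foliage with a water-diluted wettable powder at 1000 L/ha spray volume, delivering 1000 g active ingredient per hectare. Herbicidal effect was scored on day 14 after treatment.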

Indian millet [5] = assay: as above; design: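 index 0 to 10 in 10% steps of herbicidal effect with 10 meaning complete death and 0 below 10%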; conditions: 1000 g effective component per hectare, day 14 after the treatment
In short: as §2

Echinochloa crus-galli [6] = assay: as above; design: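 index 0 to 10 in 10% steps of herbicidal effect with 10 meaning complete death and 0 below 10%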; conditions: 1000 g effective component per hectare, day 14 after the treatment
In short: (§3)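 Potted field-soil plants grown 2 weeks in a greenhouse were sprayed over the whole foliage with diluted wettable powder at 1000 L/ha, delivering 1000 g active ingredient per hectare. Herbicidal effect scored by visual criteria 14 days after treatment.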

Scirpus juncoides Rocxb. = assay: Herbicidal activity by paddy field soil treatment (Test Example 1); design: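 index 0 to 10 in 10% steps of herbicidal effect with 10 meaning complete death and 0 below 10%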; conditions: applied on water surface, 1000 g of effective component per hectare, day 21 after the treatment
In short: (§4)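 Seeds were sown in puddled paddy soil in pots flooded to 3 cm water depth; the next day a water-diluted wettable powder was applied to the water surface at 1000 g active ingredient/ha. Plants were grown in a greenhouse and herbicidal effect scored by graded criteria on day 21 after treatment.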

Monochoria vaginalis = assay: as above; design: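 index 0 to 10 in 10% steps of herbicidal effect with 10 meaning complete death and 0 below 10%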; conditions: 1000 g of effective component per hectare, evaluated on day 21 after the treatment, criteria of Table 72
In short: as §4

Echinochloa oryzicola = assay: as above; design: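 index 0 to 10 in 10% steps of herbicidal effect with 10 meaning complete death and 0 below 10%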; conditions: 1000 g of effective component per hectare, evaluated on day 21 after the treatment, criteria of Table 72
In short: as §4

Setaria viridis = assay: Herbicidal activity by field foliage treatment (Test example 3); conditions: 1000 g effective component per hectare, day 14 after the treatment;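 further: index 0 to 10 in 10% steps of herbicidal effect with 10 meaning complete death and 0 below 10%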
In short: as §3

Structure (SMILES)	herbicidal effect index, Amaranthus retroflexus (A. retroflexus [1])	herbicidal effect index, Abutilon theophrasti (Indian millet [2])	herbicidal effect index, Echinochloa crus-galli (Echinochloa crus-galli [3])	herbicidal effect index, Setaria viridis (foxtail)	herbicidal effect index, Amaranthus retroflexus (A. retroflexus [4])	herbicidal effect index, Abutilon theophrasti (Indian millet [5])	herbicidal effect index, Echinochloa crus-galli (Echinochloa crus-galli [6])	herbicidal effect index, S. juncoides Rocxb. (Scirpus juncoides Rocxb.)	Herbicidal effects index number, Monochoria vaginalis (Monochoria vaginalis)	Herbicidal effects index number, Echinochloa oryzicola (Echinochloa oryzicola)	herbicidal effect index, Setaria viridis (Setaria viridis)
Cc1ccc(F)cc1-n1c(=O)c(C(=O)C2=C(O)CCCC2=O)nn(C)c1=O [I-118]	10	9	10	9	10	10	9	10	10	10	10
Cc1cccc(-n2c(=O)c(C(=O)C3=C(O)CCCC3=O)nn(C)c2=O)c1Cl [I-127]	10	10	10	8	10	9	10	10	10	10	10
Cc1ccc(-n2c(=O)c(C(=O)C3=C(O)CCCC3=O)nn(C)c2=O)c(Cl)c1 [I-128]	10	10	8	9	10	10	9	10	9	8	10
Cc1ccc(Cl)c(-n2c(=O)c(C(=O)C3=C(O)CCCC3=O)nn(C)c2=O)c1 [I-129]	10	10	9	10	10	9	10	10	10	10	9
COc1ccc(Cl)cc1-n1c(=O)c(C(=O)C2=C(O)CCCC2=O)nn(C)c1=O [I-134]	10	10	10	10	10	10	10	10	10	10	10
Cc1cc(Cl)ccc1-n1c(=O)c(C(=O)C2=C(O)CCCC2=O)nn(C)c1=O [I-137]	10	10	10	9	10	10	10	10	10	10	10
COc1cc(-n2c(=O)c(C(=O)C3=C(O)CCCC3=O)nn(C)c2=O)cc(OC)c1OC [I-169]	10	9	10	10	8	9	9	10	10	10	9
Cn1nc(C(=O)C2=C(O)CCCC2=O)c(=O)n(-c2ccccn2)c1=O [I-179]	9	10	10	10	10	10	10	10	10	10	10
Cn1nc(C(=O)C2=C(O)CCCC2=O)c(=O)n(N2CCOCC2)c1=O [I-202]	10	9	10	9	9	9	9	10	10	10	9
Cn1nc(C(=O)C2=C(O)CCCC2=O)c(=O)n(C)c1=S [I-265]	10	10	10	10	10	9	8	10	10	10	9
Cn1nc(C(=O)C2=C(O)CCCC2=O)c(=O)n(-c2ccccc2-c2ccccc2)c1=O [I-269]	10	9	8	9	10	9	10	10	8	8	8
Cn1nc(C(=O)C2=C(O)CCCC2=O)c(=O)n(-c2ccc(-c3ccccc3)cc2)c1=O [I-271]	10	10	10	10	10	9	10	10	8	8	7
Cn1nc(C(=O)C2=C(O)CCCC2=O)c(=O)n(-c2cccnc2Cl)c1=O [I-276]	10	10	9	9	10	9	10	9	8	8	10
Cc1ncccc1-n1c(=O)c(C(=O)C2=C(O)CCCC2=O)nn(C)c1=O [I-277]	8	7	8	8	10	9	10	10	9	9	9
Cn1nc(C(=O)C2=C(O)CCCC2=O)c(=O)n(-c2ccnc(Br)c2)c1=O [I-281]	10	9	9	9	9	9	9	10	10	10	7
